Compound: CCOC(=O)CCNc1cc(N2CCc3ccccc3CC2)nc(-c2ccccn2)n1 [GSK-J4] + CC(C)C[C@H](NC(=O)[C@H](Cc1ccccc1)NC(=O)c1cnccn1)B(O)O [Bortezomib] (partner 0.002 µM)
Assay: relative viability (nuclei count vs DMSO), 5 days (fraction); higher = more cells survive
Details: first compound 0.5 µM
Method in brief: (§1)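 Lung cancer cell lines in 1536-well plates got either a single drug or a fixed anchor-drug dose together with five library-drug doses (not always all listed) in √10 steps, by pin tool, on the day after seeding. Nuclei were counted after 5 days, and relative viability is the treated-to-vehicle ratio of nuclei counts. Values are medians of duplicate plates.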

Cell Line	relative viability
NCI-H322M	1.3
LC-2-ad	0.932
HCC-827	1.02
HCC-15	1.01
HOP-62	0.688
NCI-H460	1.02
LU99A	1.07
NCI-H2085	0.949
A-427	0.937
NCI-H520	0.553
NCI-H838	0.978
NCI-H1792	0.963
NCI-H596	0.999
NCI-H3122	0.938
BEN	0.898
201T	1.03
NCI-H1993	1.18

Cell Line	relative viability
NCI-H1355	1.23
NCI-H2405	0.992
NCI-H1437	0.537
NCI-H661	0.896
COR-L 105	0.851
H3255	0.858
NCI-H2347	0.827
NCI-H1975	0.383
NCI-H441	0.749
NCI-H1650	0.17
NCI-H1915	0.883
NCI-H2087	0.789
HCC-366	1
RERF-LC-KJ	0.989
EMC-BAC-2	1.08
LCLC-97TM1	0.981

Same assay, conditions: first compound 1.581 µM

Cell Line	relative viability
NCI-H322M	1.03
LC-2-ad	0.907
HCC-827	0.95
HCC-15	0.527
HOP-62	0.532
NCI-H460	0.888
LU99A	0.777
NCI-H2085	0.927
NCI-H520	0.316
NCI-H838	0.483
NCI-H1792	0.724
NCI-H596	0.945
NCI-H3122	0.982
BEN	0.719
201T	1.08
NCI-H1993	1.24

Cell Line	relative viability
NCI-H1355	1.04
NCI-H2405	0.724
NCI-H1437	0.328
NCI-H661	0.852
COR-L 105	0.521
H3255	0.632
NCI-H2347	0.818
NCI-H1975	0.354
NCI-H441	0.497
NCI-H1650	0.164
NCI-H1915	0.924
NCI-H2087	0.763
HCC-366	1.02
RERF-LC-KJ	0.993
EMC-BAC-2	0.944

Same assay, conditions: first compound 5 µM

Cell Line	relative viability
NCI-H322M	1.67
LC-2-ad	0.749
HCC-827	0.883
HCC-15	0.943
HOP-62	0.73
NCI-H460	1
LU99A	0.777
NCI-H2085	0.857
A-427	0.839
NCI-H520	0.299
NCI-H1792	0.915
NCI-H596	0.99
NCI-H3122	0.986
201T	1.05
NCI-H1993	1.19
NCI-H1355	1.11
NCI-H1437	0.435
NCI-H661	0.791
COR-L 105	0.605
H3255	0.655
NCI-H2347	0.827
NCI-H441	0.401
NCI-H1650	0.219
NCI-H1915	0.661
RERF-LC-KJ	1.04
EMC-BAC-2	0.811
LCLC-97TM1	0.393

Same assay, conditions: first compound 15.81 µM

Cell Line	relative viability
NCI-H322M	1.11
LC-2-ad	1.01
HCC-827	1.11
HCC-15	1.01
HOP-62	0.74
NCI-H460	1.04
LU99A	1.21
NCI-H2085	1.09
A-427	0.781
NCI-H520	0.509
NCI-H838	0.769
NCI-H1792	0.909
NCI-H596	0.976
NCI-H3122	1.02
BEN	0.857
201T	1.14
NCI-H1993	0.878

Cell Line	relative viability
NCI-H1355	1.16
NCI-H2405	0.968
NCI-H1437	0.504
NCI-H661	0.589
COR-L 105	0.734
H3255	0.579
NCI-H2347	0.958
NCI-H1975	0.368
NCI-H441	0.538
NCI-H1650	0.174
NCI-H1915	0.931
NCI-H2087	0.701
HCC-366	1.01
RERF-LC-KJ	1.11
EMC-BAC-2	0.965
LCLC-97TM1	0.449

Same assay, conditions: first compound 50 µM

Cell Line	relative viability
NCI-H322M	1.02
LC-2-ad	0.94
HCC-827	1.04
HCC-15	0.906
HOP-62	0.823
NCI-H460	0.985
LU99A	0.632
NCI-H2085	1
A-427	0.789
NCI-H520	0.556
NCI-H838	0.792
NCI-H1792	1.02
NCI-H596	1
NCI-H3122	0.993
BEN	0.735
201T	1.09
NCI-H1993	0.812

Cell Line	relative viability
NCI-H1355	1.16
NCI-H2405	1.04
NCI-H1437	0.209
NCI-H661	0.583
COR-L 105	0.856
H3255	0.603
NCI-H2347	0.818
NCI-H1975	0.413
NCI-H441	0.348
NCI-H1650	0.232
NCI-H1915	1.01
NCI-H2087	0.72
HCC-366	0.96
RERF-LC-KJ	0.963
EMC-BAC-2	1.08
LCLC-97TM1	0.526

Compound: CN1CCC(CC1)OC2=CC(=C(C=C2)NC3=NC=C4C(=N3)N(C(=O)N4C)C5CCCC5)OC [AZ3146] + C[C@@H](Oc1cc(-c2cnn(C3CCNCC3)c2)cnc1N)c1c(Cl)ccc(F)c1Cl [Crizotinib] (partner 1 µM)
Assay: as above
Details: first compound 0.08 µM
Method in brief: as §1

Cell Line	relative viability
NCI-H322M	0.683
LC-2-ad	0.365
HCC-827	0.943
HCC-15	0.83
HOP-62	0.946
NCI-H460	0.729
LU99A	0.502
NCI-H2085	0.837
A-427	0.877
NCI-H520	0.691
NCI-H838	0.797
NCI-H1792	0.834
NCI-H596	1.02
NCI-H3122	0.294
201T	1.02
NCI-H1993	0.876

Cell Line	relative viability
NCI-H1355	1.07
NCI-H2405	0.808
NCI-H1437	0.875
NCI-H661	0.979
COR-L 105	0.756
H3255	0.841
NCI-H2347	0.522
NCI-H1975	0.862
NCI-H441	0.646
NCI-H1650	0.933
NCI-H1915	0.878
NCI-H2087	0.906
HCC-366	0.514
RERF-LC-KJ	0.794
EMC-BAC-2	0.679

Same assay, conditions: first compound 0.253 µM

Cell Line	relative viability
NCI-H322M	0.876
LC-2-ad	0.511
HCC-827	0.859
HCC-15	0.863
HOP-62	0.955
NCI-H460	0.844
LU99A	0.584
NCI-H2085	0.998
A-427	0.927
NCI-H520	0.959
NCI-H838	0.798
NCI-H1792	1.07
NCI-H596	0.947
NCI-H3122	0.299
BEN	0.869
201T	1.03

Cell Line	relative viability
NCI-H1993	0.847
NCI-H1355	1.04
NCI-H2405	0.842
NCI-H1437	0.906
NCI-H661	1.14
COR-L 105	0.745
H3255	0.884
NCI-H2347	0.677
NCI-H1975	1.07
NCI-H441	0.658
NCI-H1650	0.95
NCI-H1915	0.905
NCI-H2087	0.875
HCC-366	0.695
RERF-LC-KJ	0.864
EMC-BAC-2	0.696

Same assay, conditions: first compound 0.8 µM

Cell Line	relative viability
NCI-H322M	0.9
LC-2-ad	0.481
HCC-827	1.04
HCC-15	0.768
HOP-62	0.917
NCI-H460	0.664
LU99A	0.555
NCI-H2085	0.933
A-427	0.869
NCI-H520	0.613
NCI-H838	0.656
NCI-H1792	1.01
NCI-H596	1.02
NCI-H3122	0.274
BEN	0.97
201T	1
NCI-H1993	0.813

Cell Line	relative viability
NCI-H1355	1.1
NCI-H2405	0.733
NCI-H1437	0.853
NCI-H661	1.03
COR-L 105	0.508
H3255	0.886
NCI-H2347	0.822
NCI-H1975	0.834
NCI-H441	0.774
NCI-H1650	0.84
NCI-H1915	0.852
NCI-H2087	0.843
HCC-366	0.246
RERF-LC-KJ	0.816
EMC-BAC-2	0.884
LCLC-97TM1	0.485

Same assay, conditions: first compound 2.53 µM

Cell Line	relative viability
NCI-H322M	0.763
LC-2-ad	0.494
HCC-827	0.913
HCC-15	0.677
HOP-62	1.09
NCI-H460	0.11
LU99A	0.555
NCI-H2085	0.824
A-427	0.804
NCI-H520	0.486
NCI-H838	0.613
NCI-H1792	0.797
NCI-H596	1.02
NCI-H3122	0.305
BEN	0.822
201T	1.06
NCI-H1993	0.879

Cell Line	relative viability
NCI-H1355	1.04
NCI-H2405	0.899
NCI-H1437	1.02
NCI-H661	1.11
COR-L 105	0.518
H3255	1.03
NCI-H2347	0.647
NCI-H1975	0.406
NCI-H441	0.773
NCI-H1650	0.95
NCI-H1915	0.896
NCI-H2087	0.795
HCC-366	0.192
RERF-LC-KJ	0.864
EMC-BAC-2	0.763
LCLC-97TM1	0.352

Same assay, conditions: first compound 8 µM

Cell Line	relative viability
NCI-H322M	0.6
LC-2-ad	0.321
HCC-827	0.911
HCC-15	0.445
HOP-62	0.601
NCI-H460	0.0243
LU99A	0.452
NCI-H2085	0.658
A-427	0.444
NCI-H520	0.406
NCI-H838	0.281
NCI-H1792	1
NCI-H596	1.01
NCI-H3122	0.27
BEN	0.829
201T	1.02
NCI-H1993	0.84
NCI-H1355	1.08
NCI-H2405	0.798
NCI-H1437	0.863
NCI-H661	0.814
COR-L 105	0.332
H3255	0.442
NCI-H2347	0.699
NCI-H1975	0.299
NCI-H441	0.658
NCI-H1650	0.489
NCI-H1915	0.82
NCI-H2087	0.376

Reference: the supplement of paper PMC10307832
